Values quoted from earlier work, collected in patent US20190000853A1, “ANTIVIRAL 4-(2-AMINO-6-HETEROCYLYL-9H-PURIN-9-YL)-2-CYCLOPENTENE-1 -METHANOL COMPOUNDS” (THE UNIVERSITY OF LIVERPOOL, priority 2015, published 2019).

Test system: HIV-1
Conditions: literature comparison with Abacavir

SMILES: Nc1nc(N2CCC2)c2ncn([C@H]3C=C[C@@H](CO)C3)c2n1 [ABC1-4]
- Antiviral potency relative to Abacavir: equipotent to Abacavir
